Reference: ChEMBL document CHEMBL2046355 (Bioorg Med Chem Lett, 2012)
Activity calls are given as the source filed them. No cut-off for these calls is given here.

Tests used:
[1] = molecular target: T1, Solute carrier family 12 member 5 (Homo sapiens, UniProt Q9H2X9); assay: Antagonist activity at KCC2 expressed in human HEK293 cells assessed as decrease in Tl-stimulated fluorescence increase after 8 mins by fluorescence analysis; type: functional, cell-based
T1 sequence (Q9H2X9 whole entry): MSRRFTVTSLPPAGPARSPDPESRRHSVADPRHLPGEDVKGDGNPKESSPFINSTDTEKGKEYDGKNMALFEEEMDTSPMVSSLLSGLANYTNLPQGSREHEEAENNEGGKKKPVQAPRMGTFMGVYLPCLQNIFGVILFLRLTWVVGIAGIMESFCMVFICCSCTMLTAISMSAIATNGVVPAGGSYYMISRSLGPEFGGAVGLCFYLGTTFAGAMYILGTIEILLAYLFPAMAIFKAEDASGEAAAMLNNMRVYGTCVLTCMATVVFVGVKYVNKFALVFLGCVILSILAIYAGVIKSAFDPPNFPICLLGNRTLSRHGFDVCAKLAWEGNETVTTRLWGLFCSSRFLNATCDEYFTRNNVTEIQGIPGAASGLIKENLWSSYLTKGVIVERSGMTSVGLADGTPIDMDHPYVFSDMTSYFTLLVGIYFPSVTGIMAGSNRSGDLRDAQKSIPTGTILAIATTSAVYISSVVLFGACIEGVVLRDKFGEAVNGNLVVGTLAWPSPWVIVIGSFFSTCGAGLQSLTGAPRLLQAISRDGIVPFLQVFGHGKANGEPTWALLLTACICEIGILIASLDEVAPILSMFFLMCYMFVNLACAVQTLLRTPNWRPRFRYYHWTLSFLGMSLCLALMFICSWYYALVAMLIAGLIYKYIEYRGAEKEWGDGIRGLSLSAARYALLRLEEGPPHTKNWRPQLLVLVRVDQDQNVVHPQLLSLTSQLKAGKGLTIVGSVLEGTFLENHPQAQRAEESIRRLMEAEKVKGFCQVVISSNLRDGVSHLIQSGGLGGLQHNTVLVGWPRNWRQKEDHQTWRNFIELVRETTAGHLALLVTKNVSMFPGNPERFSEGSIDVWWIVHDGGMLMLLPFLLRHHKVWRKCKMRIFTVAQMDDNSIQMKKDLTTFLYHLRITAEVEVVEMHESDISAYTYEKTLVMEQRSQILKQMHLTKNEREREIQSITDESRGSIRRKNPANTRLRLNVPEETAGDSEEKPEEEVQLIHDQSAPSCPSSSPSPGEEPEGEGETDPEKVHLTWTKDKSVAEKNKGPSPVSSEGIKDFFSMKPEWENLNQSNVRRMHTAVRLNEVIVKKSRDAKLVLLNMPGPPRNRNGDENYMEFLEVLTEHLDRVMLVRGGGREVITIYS

Cytochrome P450 2C9 = Cytochrome P450 2C9 (Homo sapiens, UniProt P11712); assay: Inhibition of CYP2C9 in human liver microsomes; type: ADME, Microsome
Cytochrome P450 1A2 = molecular target: T2, Cytochrome P450 1A2 (Homo sapiens, UniProt P05177); assay: Inhibition of CYP1A2 in human liver microsomes; type: ADME, Microsome
T2 sequence (P05177 whole entry): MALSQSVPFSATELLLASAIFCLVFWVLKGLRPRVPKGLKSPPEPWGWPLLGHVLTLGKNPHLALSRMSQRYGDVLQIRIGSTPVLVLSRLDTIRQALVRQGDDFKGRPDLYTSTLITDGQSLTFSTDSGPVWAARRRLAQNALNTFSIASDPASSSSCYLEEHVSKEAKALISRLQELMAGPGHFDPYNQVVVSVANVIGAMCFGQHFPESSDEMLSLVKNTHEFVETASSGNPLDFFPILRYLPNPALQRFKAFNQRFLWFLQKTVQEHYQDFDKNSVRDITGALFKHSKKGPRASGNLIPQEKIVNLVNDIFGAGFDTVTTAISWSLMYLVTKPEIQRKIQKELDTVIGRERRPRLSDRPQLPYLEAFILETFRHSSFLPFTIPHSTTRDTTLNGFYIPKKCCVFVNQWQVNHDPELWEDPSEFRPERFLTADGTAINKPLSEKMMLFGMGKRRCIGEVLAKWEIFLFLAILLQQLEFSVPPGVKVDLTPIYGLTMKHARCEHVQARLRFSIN

Cytochrome P450 2D6 = Cytochrome P450 2D6 (Homo sapiens, UniProt P10635); assay: Inhibition of CYP2D6 in human liver microsomes; type: ADME, Microsome
[2] = Clearance in rat at 1 mg/kg, iv; type: ADME, organism-based; set-up: dose 1 mg/kg, route intravenous; conditions: in vivo
[3] = Volume of distribution at steady state in rat at 1 mg/kg, iv; type: ADME, organism-based; set-up: dose 1 mg/kg, route intravenous; conditions: in vivo, read-out: Vdss
[4] = Half life in rat at 1 mg/kg, iv; type: ADME, organism-based; set-up: dose 1 mg/kg, route intravenous; conditions: in vivo
[5] = molecular target: T3, Solute carrier family 12 member 5 (Homo sapiens) (UniProt Q9H2X9); assay: Antagonist activity at KCC2 expressed in human HEK293 cells assessed as [86Rb] uptake after 30 mins by scintillation counting; type: functional, cell-based
T3 sequence (whole entry): T1 sequence (Q9H2X9 whole entry)

[6] = Metabolic stability of the compound in rat plasma assessed as compound remaining after 1 hr; type: ADME, cell-free; conditions: read-out: Stability
[7] = molecular target: T3, Solute carrier family 12 member 5 (Homo sapiens); assay: Antagonist activity at KCC2 expressed in human HEK293 cells assessed as decrease in Tl-stimulated fluorescence increase at 2 uM after 8 mins by fluorescence analysis; type: functional, cell-based
Cytochrome P450 3A4 = Cytochrome P450 3A4 (Homo sapiens, UniProt P08684); assay: Inhibition of CYP3A4 in human liver microsomes; type: ADME, Microsome
Plasma [8] = assay: Fraction unbound in rat plasma; type: ADME, cell-free
Plasma [9] = assay: Fraction unbound in human plasma; type: ADME, cell-free
[10] = molecular target: T4, Solute carrier family 12 member 2 (Homo sapiens, UniProt P55011); assay: Antagonist activity at […] expressed in human HEK293 cells assessed as [86Rb] uptake after 30 mins by scintillation counting; type: functional, cell-based
T4 sequence (P55011 whole entry): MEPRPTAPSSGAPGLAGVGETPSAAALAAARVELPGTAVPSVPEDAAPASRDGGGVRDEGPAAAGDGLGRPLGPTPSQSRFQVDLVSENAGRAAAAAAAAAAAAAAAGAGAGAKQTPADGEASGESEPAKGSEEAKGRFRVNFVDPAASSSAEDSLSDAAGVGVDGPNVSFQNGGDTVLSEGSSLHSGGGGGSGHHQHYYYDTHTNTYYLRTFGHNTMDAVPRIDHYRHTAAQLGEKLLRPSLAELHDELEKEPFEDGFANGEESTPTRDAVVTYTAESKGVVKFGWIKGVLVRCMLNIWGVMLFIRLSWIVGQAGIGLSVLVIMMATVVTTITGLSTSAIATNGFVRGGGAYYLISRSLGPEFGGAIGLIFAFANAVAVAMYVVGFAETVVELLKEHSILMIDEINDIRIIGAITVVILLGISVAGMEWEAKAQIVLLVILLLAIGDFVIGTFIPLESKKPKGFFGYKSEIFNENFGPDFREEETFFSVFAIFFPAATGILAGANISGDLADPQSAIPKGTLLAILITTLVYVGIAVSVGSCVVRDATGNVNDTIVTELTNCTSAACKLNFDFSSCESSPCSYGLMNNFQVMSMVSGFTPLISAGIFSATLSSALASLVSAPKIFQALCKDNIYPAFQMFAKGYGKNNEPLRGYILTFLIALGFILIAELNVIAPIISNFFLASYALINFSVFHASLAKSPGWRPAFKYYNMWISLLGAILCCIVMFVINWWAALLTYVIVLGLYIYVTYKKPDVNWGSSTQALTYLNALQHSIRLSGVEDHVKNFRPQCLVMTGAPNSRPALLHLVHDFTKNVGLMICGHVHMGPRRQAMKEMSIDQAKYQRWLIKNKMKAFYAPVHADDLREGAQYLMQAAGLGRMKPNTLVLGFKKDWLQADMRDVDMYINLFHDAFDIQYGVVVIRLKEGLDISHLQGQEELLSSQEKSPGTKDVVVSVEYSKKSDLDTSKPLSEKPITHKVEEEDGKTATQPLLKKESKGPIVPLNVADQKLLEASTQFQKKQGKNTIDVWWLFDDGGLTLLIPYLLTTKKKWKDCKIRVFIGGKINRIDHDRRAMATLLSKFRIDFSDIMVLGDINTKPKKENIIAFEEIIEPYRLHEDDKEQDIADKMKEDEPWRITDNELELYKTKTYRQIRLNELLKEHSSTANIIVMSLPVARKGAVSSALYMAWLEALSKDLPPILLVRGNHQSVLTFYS

[11] = molecular target: T5, Solute carrier family 12 member 2 (Homo sapiens) (UniProt P55011); assay: Antagonist activity at […] expressed in human HEK293 cells assessed as [86Rb] uptake at 50 uM after 30 mins by scintillation counting; type: functional, cell-based; set-up: scale not given: the % may be the effect or the level left
T5 sequence (whole entry): T4 sequence (P55011 whole entry)

hERG (KCNH2) = hERG (KCNH2) (Homo sapiens, UniProt Q12809); assay: Inhibition of human Erg at 10 uM
[12] = Inhibition of L-type calcium channel at 10 uM

Cytochrome P450 2C9, sequence (P11712 whole entry): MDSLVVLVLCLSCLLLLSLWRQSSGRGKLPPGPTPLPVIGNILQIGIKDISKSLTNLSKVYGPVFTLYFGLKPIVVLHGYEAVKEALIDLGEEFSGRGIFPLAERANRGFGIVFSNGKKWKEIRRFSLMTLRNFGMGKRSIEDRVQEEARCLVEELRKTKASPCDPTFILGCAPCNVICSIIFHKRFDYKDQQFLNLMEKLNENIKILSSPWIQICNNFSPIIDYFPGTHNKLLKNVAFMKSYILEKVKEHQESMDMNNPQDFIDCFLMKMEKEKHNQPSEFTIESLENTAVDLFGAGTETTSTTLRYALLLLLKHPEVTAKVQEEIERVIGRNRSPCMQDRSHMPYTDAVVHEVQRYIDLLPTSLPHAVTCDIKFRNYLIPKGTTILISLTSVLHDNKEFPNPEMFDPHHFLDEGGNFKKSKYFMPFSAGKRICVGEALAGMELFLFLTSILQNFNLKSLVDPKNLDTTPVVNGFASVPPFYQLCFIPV
Cytochrome P450 2D6, sequence (P10635 whole entry): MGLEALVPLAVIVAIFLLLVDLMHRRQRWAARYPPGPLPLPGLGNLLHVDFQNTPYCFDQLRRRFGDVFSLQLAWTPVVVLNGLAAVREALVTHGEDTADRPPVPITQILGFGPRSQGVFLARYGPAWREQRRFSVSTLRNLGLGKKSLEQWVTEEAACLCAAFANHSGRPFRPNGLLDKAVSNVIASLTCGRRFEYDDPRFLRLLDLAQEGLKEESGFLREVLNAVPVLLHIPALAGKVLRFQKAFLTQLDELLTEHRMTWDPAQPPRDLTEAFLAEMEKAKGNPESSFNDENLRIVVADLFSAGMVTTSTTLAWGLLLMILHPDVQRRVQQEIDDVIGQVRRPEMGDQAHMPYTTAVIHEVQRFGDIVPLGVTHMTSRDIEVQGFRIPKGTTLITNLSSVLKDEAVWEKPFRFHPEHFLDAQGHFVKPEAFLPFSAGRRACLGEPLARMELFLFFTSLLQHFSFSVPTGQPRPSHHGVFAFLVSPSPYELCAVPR
Cytochrome P450 3A4, sequence (P08684 whole entry): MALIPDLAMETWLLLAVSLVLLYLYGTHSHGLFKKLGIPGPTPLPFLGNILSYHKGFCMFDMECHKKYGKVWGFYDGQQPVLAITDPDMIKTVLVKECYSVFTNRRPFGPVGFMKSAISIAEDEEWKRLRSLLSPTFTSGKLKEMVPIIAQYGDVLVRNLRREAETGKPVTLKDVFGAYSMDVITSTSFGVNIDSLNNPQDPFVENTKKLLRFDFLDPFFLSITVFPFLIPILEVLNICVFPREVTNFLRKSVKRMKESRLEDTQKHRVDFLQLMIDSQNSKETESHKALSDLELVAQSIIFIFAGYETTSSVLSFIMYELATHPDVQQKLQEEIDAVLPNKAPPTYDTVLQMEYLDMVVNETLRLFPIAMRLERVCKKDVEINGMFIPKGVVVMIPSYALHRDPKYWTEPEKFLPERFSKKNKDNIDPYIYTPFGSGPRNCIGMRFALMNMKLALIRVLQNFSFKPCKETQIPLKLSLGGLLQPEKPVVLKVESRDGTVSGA
hERG (KCNH2), sequence (Q12809 whole entry): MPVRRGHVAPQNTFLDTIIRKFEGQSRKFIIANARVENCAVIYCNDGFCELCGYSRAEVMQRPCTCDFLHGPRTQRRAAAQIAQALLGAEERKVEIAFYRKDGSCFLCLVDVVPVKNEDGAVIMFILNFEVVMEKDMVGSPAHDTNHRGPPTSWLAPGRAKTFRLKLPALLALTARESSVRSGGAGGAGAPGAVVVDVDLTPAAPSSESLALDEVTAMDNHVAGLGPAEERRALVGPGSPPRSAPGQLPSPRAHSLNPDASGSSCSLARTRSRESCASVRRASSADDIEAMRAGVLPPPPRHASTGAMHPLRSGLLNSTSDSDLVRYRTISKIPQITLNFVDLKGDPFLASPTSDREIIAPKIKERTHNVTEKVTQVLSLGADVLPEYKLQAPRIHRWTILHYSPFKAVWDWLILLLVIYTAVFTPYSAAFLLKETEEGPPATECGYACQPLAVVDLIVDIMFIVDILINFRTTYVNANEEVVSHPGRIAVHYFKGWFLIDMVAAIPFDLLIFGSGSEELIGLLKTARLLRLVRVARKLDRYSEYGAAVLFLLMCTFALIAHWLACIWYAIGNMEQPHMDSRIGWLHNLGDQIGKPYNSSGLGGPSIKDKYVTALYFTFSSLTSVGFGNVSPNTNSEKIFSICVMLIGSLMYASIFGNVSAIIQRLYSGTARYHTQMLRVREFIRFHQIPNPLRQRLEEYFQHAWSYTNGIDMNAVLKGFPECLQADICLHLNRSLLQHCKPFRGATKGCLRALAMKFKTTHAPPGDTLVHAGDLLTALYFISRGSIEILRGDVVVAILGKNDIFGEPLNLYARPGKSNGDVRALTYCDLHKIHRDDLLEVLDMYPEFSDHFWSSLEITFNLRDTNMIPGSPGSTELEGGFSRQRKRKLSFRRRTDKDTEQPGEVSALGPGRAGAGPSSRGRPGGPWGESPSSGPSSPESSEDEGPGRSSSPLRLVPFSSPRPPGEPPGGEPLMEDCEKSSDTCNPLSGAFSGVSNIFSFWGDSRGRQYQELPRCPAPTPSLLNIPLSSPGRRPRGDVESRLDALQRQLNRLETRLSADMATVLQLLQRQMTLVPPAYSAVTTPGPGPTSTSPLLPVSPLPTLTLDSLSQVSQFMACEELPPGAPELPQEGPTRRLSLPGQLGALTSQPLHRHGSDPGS

In the case of `Cc1csc(N(C(=O)CSc2ccc(-c3ccccc3)nn2)C2CC2)n1`, the IC50 [1] is reported as 0.061 µM, the IC50 (Cytochrome P450 2C9) is reported as over 30 µM and the IC50 (Cytochrome P450 1A2) is reported as 20 µM. It also gave an IC50 (Cytochrome P450 2D6) of over 30 µM, a clearance [2] of 57 mL/min/kg and a Vd [3] of 0.4 L/kg. For the same compound, the half-life [4] was 9 min, the Activity [5] was “Active” and the remaining at 1 h [6] was 6%.

For `Cc1csc(N(C)C(=O)CSc2ccc(-c3ccccc3)nn2)n1`, the inhibition [7] was 82%, the IC50 [1] was 0.537 µM and the IC50 (Cytochrome P450 3A4) was over 30 µM. For the same compound, the IC50 (Cytochrome P450 2C9) was over 30 µM, the IC50 (Cytochrome P450 1A2) was over 30 µM and the IC50 (Cytochrome P450 2D6) was 24 µM. For the same compound, the Fu (Plasma [8]) was 1%, the Fu (Plasma [9]) was 2% and the clearance [2] was 185 mL/min/kg. The Vd [3] was 5 L/kg, the half-life [4] was 26 min and the Activity [5] was “Active”. For the same compound, the IC50 [10] was over 50 µM.

`CCC(Sc1ccc(-c2ccccc2)nn1)C(=O)N(c1nc(C)cs1)C1CC1` (racemic) [listing 1 of 2 here] showed an inhibition [7] of 84%.

With `O=C(Cn1cnc2c(nnn2Cc2ccccc2)c1=O)c1ccc(Cl)cc1` the IC50 [1] was 1.2 µM and the Activity [11] was 40%.

Work on `Cc1csc(N(C)C(=O)CSc2ccc(-c3ccccc3)cn2)n1` yielded an IC50 [1] of 2.9 µM.

In the case of `CCC(Sc1ccc(-c2ccccc2)nn1)C(=O)N(c1nc(C)cs1)C1CC1` (racemic) [listing 2 of 2 here], the IC50 [1] is reported as 0.756 µM.

For `CCC(Sc1ccc(-c2ccccc2)nn1)C(=O)N(c1nc(C)cs1)C1CC1` (single isomer, unassigned; (+)), the IC50 [1] was 0.385 µM.

Compound `CCC(Sc1ccc(-c2ccccc2)nn1)C(=O)N(c1nc(C)cs1)C1CC1` (single isomer, unassigned; (-)) has an inhibition [7] of 40%.

`CCN(C(=O)C(C)Sc1ccc(-c2ccccc2)nn1)c1nc(C)cs1` (racemic) gave an inhibition [7] of 57%.

For `Cc1csc(NC(=O)CSc2ccc(-c3ccccc3)nn2)n1`, the IC50 [1] was 0.568 µM, the inhibition at 10 µM (hERG (KCNH2)) was over 50% and the inhibition [12] was over 50%. The IC50 [10] was over 50 µM.

In the case of `CCC(Sc1ccc(-c2ccccc2)nn1)C(=O)N(CC)c1nc(C)cs1` (racemic), the inhibition [7] is reported as 45%.

In the case of `CCC(Sc1ccc(-c2ccccc2)nn1)C(=O)N(C)c1nc(C)cs1` (racemic), the inhibition [7] is reported as 27%.

Compound `Cc1csc(N(C)C(=O)C(C)Sc2ccc(-c3ccccc3)nn2)n1` (racemic) has an inhibition [7] of 46%.

For `Cc1csc(N(C(=O)CSc2ccc(-c3ccccc3)nn2)C2CCCC2)n1`, the IC50 [1] was 1.06 µM.

For `Cc1csc(NC(=O)CSc2ccc(-c3ccccc3)cn2)n1`, the IC50 [1] was 6.9 µM.

Compound `Cc1csc(N(C(=O)CSc2ccc(-c3ccccc3)nn2)C2CCC2)n1` has an IC50 [1] of 0.177 µM.
